Several values for one entry are separate records, joined by “and”; a condition that tells them apart may be missing. Identical values can stand only once. Like-named read-outs stand apart in the source and are kept apart here.
Tests used:
Type in all cases: cell-based, human
HL-60 [1] = assay: Cell proliferation assay: GI50; details: read-out: GI50
Description: (§1) Cell proliferation was analyzed using the CellTiter 96 Aqueous One Solution Cell Proliferation Assay (Promega, Madison, WI). This is a colorimetric method for determining the number of viable cells in proliferation. For the assay, suspension cells were cultured in triplicate at a density of 1 × 10^6 cells/mL in 96-well plates (100.000 cells/well, 100 µL/well), using only the 60 inner wells to avoid any border effects. […] Then, the cells were incubated with 100 μL/well of medium and 20 μL/well of CellTiter 96 Aqueous One Solution reagent for 1–3 h. […] The background absorbance was measured in wells with only cell line medium and solution reagent. First, the average of the absorbance from the control wells was subtracted from all other absorbance values. Data were calculated as the percentage of total absorbance of treated cells/absorbance of non-treated cells. The GI50 values of the different compounds were determined using non-linear regression plots made with GraphPad Prism v5 software.

ML-2 [2] = assay: Cell proliferation assay: GI50
Description: as §1

MOLM-13 [3] = assay: Cell proliferation assay: GI50
Description: as §1

MV4-11 [4] = assay: Cell proliferation assay: GI50
Description: as §1

HL-60 [5] = assay: Differentiation-apoptosis assay, CD11b / annexin-V / Sytox Green / myeloid markers flow cytometry; design: Cell viability (%): concentration or dose not given beside the values; CD11b levels: unit not given here
Description: Next, the cells were washed twice with phosphate-buffered saline (PBS) and resuspended in 1X Binding Buffer at a concentration of 1 × 10^6 cells/mL. […] Finally, after the addition of 400 µL of 1X Binding Buffer to each tube, samples were collected on a BD FACSCanto flow cytometer (Becton Dickinson, San Jose, CA, USA) and analyzed using FlowJo software.
Then, 1 million cells (volume of 250 µL) were added and incubated for 30 min at room temperature in darkness. After 10 min incubation at room temperature with 2 mL of FACSLysing 1X, cells were centrifuged at 540 g for 5 min and washed twice with FACSBuffer. Finally, after centrifugation at 540 g for 5 min cells were resuspended in FACSBuffer.

ML-2 [6] = assay: as above; design: Cell viability: concentration or dose not given beside the values; CD11b levels: unit not given here
Description: (§2) Next, the cells were washed twice with phosphate-buffered saline (PBS) and resuspended in 1X Binding Buffer at a concentration of 1 × 10^6 cells/mL. An 8-µL aliquot of APC-CD11b (BD Pharmingen, Franklin Lakes, NJ, USA) and 1 µL of FITC annexin-V (AV) (BD Pharmingen, Franklin Lakes, NJ, USA) antibodies were added and incubated for 15 min at room temperature in the dark. Finally, after the addition of 400 µL of 1X Binding Buffer to each tube, samples were collected on a BD FACSCanto flow cytometer (Becton Dickinson, San Jose, CA, USA) and analyzed using FlowJo software.
(§3) For the rest of experiments, the mix of antibodies (2 µL of BV786-CD13, Cat No, 744748 BD; 1 µL of diluted 1:10 antibody of PB-HLADR, Cat No 307633, Biolegend; 5 µL of APCH7-CD14, Cat No 641394, BD) was added to 10 µL of Brilliant Stain Buffer Plus (Becton Dickinson, San Jose, CA, USA). Then, 1 million cells (volume of 250 µL) were added and incubated for 30 min at room temperature in darkness. After 10 min incubation at room temperature with 2 mL of FACSLysing 1X, cells were centrifuged at 540 g for 5 min and washed twice with FACSBuffer. Finally, after centrifugation at 540 g for 5 min cells were resuspended in FACSBuffer.

MOLM-13 [7] = assay: as above; design: Cell viability (%): concentration or dose not given beside the values; CD11b levels: unit not given here
Description: as §2, §3

MV4-11 [8] = assay: as above; design: Cell viability (%): concentration or dose not given beside the values; CD11b levels: unit not given here
Description: as §2, §3

HL-60 [9] = assay: q-RT-PCR of MYC, CDKN2A, CDKN1A, GATA2, TAL1, CEBPA, SPI1; details: HL-60 treated daily for 48 h; replicates (Fig 6F)
Description: (§4) RNA was extracted with TRIzol Reagent (Invitrogen) according to the manufacturer’s instructions. First, cDNA was synthesized from 1 µg of total RNA using the PrimeScript RT reagent Kit (Perfect Real Time) (Cat No RR037A, TaKaRa) following the manufacturer’s instructions. The quality of cDNA was checked by a multiplex PCR that amplifies PBGD, ABL, BCR and β2-MG genes. […] The following program conditions were used for the q-PCR: 50 °C for 2 min, 95 °C for 60 s following by 45 cycles at 95 °C for 15 s and 60 °C for 60 s; melting program, one cycle at 95 °C for 15 s, 40 °C for 60 s, and 95 °C for 15 s. The relative expression of each gene was quantified by the […] method using the gene GUS as an endogenous control. The sequence of primers used can be found in Supplementary Table 10.

ML-2 [10] = assay: as above; details: ML-2 treated daily for 48 h; replicates (Fig 6G)
Description: as §4

MOLM-13 [11] = assay: as above; details: MOLM-13, daily treatment for 48 h, replicates 1-3
Description: as §4

MV4-11 [12] = assay: as above; details: MV4-11, daily treatment for 48 h, replicates 1-3
Description: as §4

[13] = HL-60, 48 h treatment, replicates 1-3 (Suppl. Fig. 5A)
[14] = ML-2, 48 h, replicates (Fig 4A)
[15] = MOLM-13, 48 h treatment, replicates 1-3 (Suppl. Fig. 5A)
[16] = MV4-11, 48 h treatment, replicates 1-3 (Suppl. Fig. 5A)

Which results are given for `Cc1sc2c(c1C)C(c1ccc(Cl)cc1)=N[C@@H](CC(=O)OC(C)(C)C)c1nnc(C)n1-2` [JQ1, reference compound]?
GI50 (HL-60 [1]; HL-60, 48 h): > 10 µM; GI50 (HL-60 [1]; HL-60, replicates 1-3, µM for the other inhibitors): > 10 µM; GI50 (ML-2 [2]; ML-2, 48 h): > 10 µM; GI50 (ML-2 [2]; ML-2, replicates 1-3, µM for the other inhibitors): > 10 µM; GI50 (MOLM-13 [3]; MOLM-13, 48 h): > 10 µM; GI50 (MOLM-13 [3]; MOLM-13, replicates 1-3, µM for the other inhibitors): > 10 µM; GI50 (MV4-11 [4]; MV4-11, 48 h): > 10 µM; GI50 (MV4-11 [4]; MV4-11, replicates 1-3, µM for the other inhibitors): > 10 µM; CD11b levels (HL-60 [5]; HL-60 treated daily for 48 h, replicates (Fig 6D)): 14.4 and 10.4 and 18.9; CD11b levels (ML-2 [6]; ML-2 treated daily for 48 h, replicates (Fig 6E)): 12.1 and 9.5 and 15.4; CD11b levels (MOLM-13 [7]; MOLM-13, daily treatment for 48 h, replicates 1-3 (Suppl. Fig. 9A)): 22.1 and 20.7 and 18.1; CD11b levels (MV4-11 [8]; MV4-11, daily treatment for 48 h, replicates 1-3 (Suppl. Fig. 9A)): 12.1 and 10.6 and 16.7; q-PCR of CEBPA (HL-60 [9]): -0.3248 log10 (2-ΔΔCt) and -0.277 log10 (2-ΔΔCt) and -0.3773 log10 (2-ΔΔCt); q-PCR of GATA2 (HL-60 [9]): -0.4169 log10 (2-ΔΔCt) and -0.4604 log10 (2-ΔΔCt) and -0.5063 log10 (2-ΔΔCt); q-PCR of MYC (HL-60 [9]): -1.0533 log10 (2-ΔΔCt) and -1.072 log10 (2-ΔΔCt) and -1.203 log10 (2-ΔΔCt); q-PCR of SPI1 (HL-60 [9]): 0.1686 log10 (2-ΔΔCt) and 0.1558 log10 (2-ΔΔCt) and 0.1908 log10 (2-ΔΔCt); q-PCR of TAL1 (HL-60 [9]): 0.3073 log10 (2-ΔΔCt); q-PCR of CEBPA (ML-2 [10]): 0.003145 log10 (2-ΔΔCt) and -0.05186 log10 (2-ΔΔCt) and 0.00217 log10 (2-ΔΔCt); q-PCR of GATA2 (ML-2 [10]): -0.7948 log10 (2-ΔΔCt) and -0.4733 log10 (2-ΔΔCt) and -0.5146 log10 (2-ΔΔCt); q-PCR of MYC (ML-2 [10]): -1.0744 log10 (2-ΔΔCt) and -1.048 log10 (2-ΔΔCt) and -1.0236 log10 (2-ΔΔCt); q-PCR of SPI1 (ML-2 [10]): -0.3978 log10 (2-ΔΔCt) and -0.4936 log10 (2-ΔΔCt) and -0.3253 log10 (2-ΔΔCt); q-PCR of TAL1 (ML-2 [10]): -0.9571 log10 (2-ΔΔCt) and -0.8702 log10 (2-ΔΔCt) and -0.7161 log10 (2-ΔΔCt); q-PCR of CEBPA, log10 (2-ΔΔCt) (MOLM-13 [11]): -0.258 and -0.1482 and -0.3669; q-PCR of GATA2, log10 (2-ΔΔCt) (MOLM-13 [11]): -0.2598 and -0.4259 and -0.3898; q-PCR of MYC, log10 (2-ΔΔCt) (MOLM-13 [11]): -0.7137 and -0.6985 and -0.8216; q-PCR of SPI1, log10 (2-ΔΔCt) (MOLM-13 [11]): -0.9325 and -0.8224 and -0.9326; q-PCR of TAL1, log10 (2-ΔΔCt) (MOLM-13 [11]): -0.4726 and -0.5813 and -0.6816; q-PCR of CEBPA, log10 (2-ΔΔCt) (MV4-11 [12]): 0.0684 and 0.023 and -0.05782; q-PCR of GATA2, log10 (2-ΔΔCt) (MV4-11 [12]): -0.3858 and -0.3755 and -0.4115; q-PCR of MYC, log10 (2-ΔΔCt) (MV4-11 [12]): -0.6192 and -0.5693 and -0.4576; q-PCR of SPI1, log10 (2-ΔΔCt) (MV4-11 [12]): -0.1789 and -0.2041 and -0.25; q-PCR of TAL1, log10 (2-ΔΔCt) (MV4-11 [12]): -1.126 and -0.6585 and -1.208

With `Cn1cc(CNCC2CCN(c3ncc(C(=O)NO)cn3)CC2)c2ccccc21` [Quisinostat, reference compound] as the compound, how does the GI50 (HL-60 [1]; HL-60, replicates 1-3, nM for Panobistat and Quisinostat) read?
Its GI50 is 0.138 µM and 0.103 µM.

And the GI50 (HL-60 [1]; Homo sapiens, HL-60, HL-60, replicates 1-3, nM for Panobistat and Quisinostat)?
The GI50 was 0.0957 µM.

And the GI50 (HL-60 [1]; Homo sapiens, HL-60, HL-60)?
The GI50 was 0.112 µM.

What about the GI50 (ML-2 [2]; Homo sapiens, ML-2, ML-2) of the same compound?
The GI50 was 0.076 µM.

And the GI50 (ML-2 [2]; Homo sapiens, ML-2, ML-2, replicates 1-3, nM for Panobistat and Quisinostat)?
Its GI50 is 0.0673 µM.

What about the GI50 (ML-2 [2]; ML-2, replicates 1-3, nM for Panobistat and Quisinostat) of the same compound?
Its GI50 is 0.0895 µM and 0.0712 µM.

And the GI50 (MOLM-13 [3]; Homo sapiens, MOLM-13, MOLM-13)?
Its GI50 is 0.067 µM.

And the GI50 (MOLM-13 [3]; Homo sapiens, MOLM-13, MOLM-13, replicates 1-3, nM for Panobistat and Quisinostat)?
Its GI50 is 0.0589 µM.

What about the GI50 (MOLM-13 [3]; MOLM-13, replicates 1-3, nM for Panobistat and Quisinostat) of the same compound?
Its GI50 is 0.0736 µM and 0.0685 µM.

And the GI50 (MV4-11 [4]; Homo sapiens, MV4-11, MV4-11)?
The GI50 was 0.013 µM.

And the GI50 (MV4-11 [4]; MV4-11, replicates 1-3, nM for Panobistat and Quisinostat)?
The GI50 was 0.0131 µM and 0.0143 µM.

What about the “CD11b (%)” value (HL-60 [5]; [13]) of the same compound?
Its value is 36.8% and 39.6% and 35.4%.

And the “Cell viability (%)” value (HL-60 [5]; [13])?
Its value is 84.1% and 72.6% and 75.5%.

What about the CD11b (ML-2 [6]; [14]) of the same compound?
Its CD11b is 35.4% and 25.9% and 25.4%.

And the Cell viability (ML-2 [6]; [14])?
The Cell viability was 86.7% and 75.1% and 77.3%.

And the “CD11b (%)” value (MOLM-13 [7]; [15])?
The value was 55.3% and 50.4% and 58.7%.

And the “Cell viability (%)” value (MOLM-13 [7]; [15])?
Its value is 64.2% and 57.7% and 56.3%.

What about the “CD11b (%)” value (MV4-11 [8]; [16]) of the same compound?
Its value is 16.1% and 10.9% and 10.0%.

And the “Cell viability (%)” value (MV4-11 [8]; [16])?
The value was 83.6% and 79% and 74.7%.

— PMC11219871, “Epigenetic-based differentiation therapy for Acute Myeloid Leukemia” (Nature Communications, 2024)
